Measured values from patent US11034717B2, “Farnesoid X receptor modulators” (Intercept Pharmaceuticals, Inc., priority 2015, dated 2021).
Where two headings read alike, the source gives them in different places.

Assays:
hTGR5 [1] = biological target: T1, hTGR5 (Homo sapiens (Human), UniProt Q8TDU6); experiment: HTR-FRET intracellular cAMP assay in NCI-H716 cells; assay type: cell-based; conditions: Table 1; Ref LCA
[2] = 1-octanol-water partition coefficient of ionized species; assay type: physicochemical
Procedure: (§1) Physiochemical properties of a compound of the invention such as water solubility, critical micellar concentration, surface tension, and LogPA were determined using methods known in the art.

[3] = Critical micellar concentration; assay type: physicochemical; conditions: determined in […] NaCl water solution
Procedure: as §1

[4] = system: FXR target genes: BSEP, SHP, OSTβ and CYP7A1; experiment: FXR target gene panel, quantitative RT-PCR in HepG2 cells; assay type: cell-based; conditions: stimulation for 18 hours
Procedure: To evaluate the capacity of a compound of the invention to modulate FXR target genes, quantitative RT-PCR assays are performed. HepG2 cells are selected as a relevant cell line to determine whether a compound of the invention can regulate the endogenous FXR genetic network. The ability of a compound of the invention to induce FXR target genes is assessed by isolating total RNA from cells treated overnight with 1 μM of compounds A, B, and a compound of the invention.
FXR regulates the expression of several target genes involved in BA homeostasis. Briefly, FXR plays a central role in several metabolic pathways, including i.e., lipid metabolism, bile-acids metabolism, and carbohydrate metabolism. Regarding gene expression profiling, the genes encoding proteins involved in lipid metabolism include, e.g., APOCII, APOE, APOAI, SREBP-1C, VLDL-R, PLTP, and LPL; the genes encoding proteins involved in bile-acids metabolism include, e.g., OSTα/β, BSEP, MRP2, SHP, CYP7A1, FGF19, SULT2A1, and UGT2B4; and the genes encoding proteins involved in carbohydrate metabolism include, e.g., PGCla, PEPCK, and GLUT2. FXR target genes: BSEP, SHP, OSTβ and CYP7A1 were evaluated following stimulation of Compounds 3, 5, 6, and 7 on HepG2 cells for 18 hours. Compound L1 was used as a control.

CYP2C9 = CYP2C9 (Homo sapiens (Human), UniProt P11712); experiment: CYP450 inhibition, fluorescent substrate, recombinant baculosomes; assay type: in vitro ADME
Procedure: (§2) To evaluate the potential of a compound of the invention for drug-drug interactions, the six main CYP450 isoforms (CYP1A2, CYP2C9, CYP2C19, CYP2D6, CYP2E1, CYP3A4) are investigated (Obach, et al., J Pharmacol. Exp. Ther, 2006, 316, 336-348).
(§3) To determine interaction between a compound of the invention and cytochrome P450 enzymes, the compound of the invention is analyzed by its capacity to inhibit (or not) the production of a fluorescent signal, using recombinant CYP450 proteins (baculosomes; Invitrogen), substrates and inhibitors (Bidstrup, et al., Br J Clin. Pharmacol, 2003, 56, 305-14). As a positive control, a selective inhibitor for each CYP450 isoform is tested in the same plate.

CYP2C19 = CYP2C19 (Homo sapiens (Human), UniProt P33261); experiment: as above; assay type: in vitro ADME
Procedure: as §2, §3

CYP1A2 = CYP1A2 (Homo sapiens (Human), UniProt P05177); experiment: as above; assay type: in vitro ADME
Procedure: as §2, §3

CYP3A4 = CYP3A4 (Homo sapiens (Human), UniProt P08684); experiment: as above; assay type: in vitro ADME
Procedure: as §2, §3

CYP2E1 = CYP2E1 (Homo sapiens (Human), UniProt P05181); experiment: as above; assay type: in vitro ADME
Procedure: as §2, §3

CYP2D6 = CYP2D6 (Homo sapiens (Human), UniProt P10635); experiment: as above; assay type: in vitro ADME
Procedure: as §2, §3

[5] = system: nuclear receptors LXRP, PXR, CAR, PPARα, PPARγ, RAR, RARα, VDR, TR, PR, RXR, GR, and ER; experiment: Nuclear receptor selectivity profile (AlphaScreen); assay type: biochemical; conditions: for Activation of nuclear receptor panel, agonist mode: dose response to 200 μM; for Activity on nuclear receptor panel, antagonist mode: fixed concentration at 10 μM
Procedure: Using the AlphaScreen assay, the selectivity of a compound of the invention against the following nuclear receptors involved in the metabolic pathways can be evaluated: LXRP, PXR, CAR, PPARα, PPARα, PPARγ, RAR, RARα, VDR, TR, PR, RXR, GR, and ER.
Compounds L1, 3, 5, 6 and 7 were tested against the panel of available nuclear receptor in both agonist and antagonist mode.

HepG2 cells = experiment: In-vitro cytotoxicity, ATP content; assay type: cell-based; conditions: Table 5A
Text: To evaluate in-vitro cytotoxicity of a compound of the invention, two different assay methods are employed. The assays evaluate cell viability by measuring ATP levels and cytotoxicity by measuring LDH release. […] It has been called the “molecular unit of currency” when it comes to intracellular energy transfer.
An additional method to determine the viability of cells is to detect the integrity of the membrane that defines the cellular compartmentalization. Measuring the leakage of components out of the cytoplasm, in damaged cell membranes, indicates loss of membrane integrity, and LDH release is the method used to determine common toxicity in cells. HepG2 cells are treated with a compound of the invention, and serial dilutions are performed. LCA dilutions are added to the plated cells as assay controls together with no-cell and untreated cells. The assay is performed in triplicate for each test compound concentration.

hTGR5 [6] = biological target: T1, hTGR5; experiment: Cross species TGR5 activity, CHO cells, human; assay type: cell-based
rTGR5 = rTGR5 (Rattus norvegicus (Rat), UniProt Q80T02); experiment: Cross species TGR5 activity, CHO cells, rat; assay type: cell-based
dTGR5 = experiment: Cross species TGR5 activity, CHO cells, dog; assay type: cell-based
mTGR5 = mTGR5 (Mus musculus (Mouse), UniProt Q80SS6); experiment: Cross species TGR5 activity, CHO cells, mouse; assay type: cell-based
hERG potassium channel = hERG potassium channel (Homo sapiens (Human), UniProt Q12809); experiment: biochemical; conditions: for hERG potassium channel inhibition (in words): Table 7 footnote
Text: The assay is based on the assumption that the hERG potassium channel activity contributes to the resting membrane potential in permanently transfected cells, and thus a block of hERG channels should result in a depolarization of the cell membrane. The assay is designed to identify potential hERG channel blockers by producing data that accurately correlates with patch-clamp electrophysiology studies.
Membrane preparations from Chinese hamster ovary cells stably transfected with hERG potassium channel are used to evaluate the potential inhibitory effect of a compound of the invention on this channel using the Predictor™ fluorescence polarization assay. Reduction of membrane polarization as a result of inhibition of the hERG potassium channel is directly correlated with a reduction of the fluorescence polarization (FP).
An assay window more than 100 mP (millipolarization) is considered good. The non-linear regression curves are obtained by GraphPad Prism (GraphPad Software Inc.) analysis, to calculate the IC50 values.

[7] = read-out: CYP3A4 (Green substrate) IC50, Green substrate

Chain of hERG potassium channel (Q12809 whole entry): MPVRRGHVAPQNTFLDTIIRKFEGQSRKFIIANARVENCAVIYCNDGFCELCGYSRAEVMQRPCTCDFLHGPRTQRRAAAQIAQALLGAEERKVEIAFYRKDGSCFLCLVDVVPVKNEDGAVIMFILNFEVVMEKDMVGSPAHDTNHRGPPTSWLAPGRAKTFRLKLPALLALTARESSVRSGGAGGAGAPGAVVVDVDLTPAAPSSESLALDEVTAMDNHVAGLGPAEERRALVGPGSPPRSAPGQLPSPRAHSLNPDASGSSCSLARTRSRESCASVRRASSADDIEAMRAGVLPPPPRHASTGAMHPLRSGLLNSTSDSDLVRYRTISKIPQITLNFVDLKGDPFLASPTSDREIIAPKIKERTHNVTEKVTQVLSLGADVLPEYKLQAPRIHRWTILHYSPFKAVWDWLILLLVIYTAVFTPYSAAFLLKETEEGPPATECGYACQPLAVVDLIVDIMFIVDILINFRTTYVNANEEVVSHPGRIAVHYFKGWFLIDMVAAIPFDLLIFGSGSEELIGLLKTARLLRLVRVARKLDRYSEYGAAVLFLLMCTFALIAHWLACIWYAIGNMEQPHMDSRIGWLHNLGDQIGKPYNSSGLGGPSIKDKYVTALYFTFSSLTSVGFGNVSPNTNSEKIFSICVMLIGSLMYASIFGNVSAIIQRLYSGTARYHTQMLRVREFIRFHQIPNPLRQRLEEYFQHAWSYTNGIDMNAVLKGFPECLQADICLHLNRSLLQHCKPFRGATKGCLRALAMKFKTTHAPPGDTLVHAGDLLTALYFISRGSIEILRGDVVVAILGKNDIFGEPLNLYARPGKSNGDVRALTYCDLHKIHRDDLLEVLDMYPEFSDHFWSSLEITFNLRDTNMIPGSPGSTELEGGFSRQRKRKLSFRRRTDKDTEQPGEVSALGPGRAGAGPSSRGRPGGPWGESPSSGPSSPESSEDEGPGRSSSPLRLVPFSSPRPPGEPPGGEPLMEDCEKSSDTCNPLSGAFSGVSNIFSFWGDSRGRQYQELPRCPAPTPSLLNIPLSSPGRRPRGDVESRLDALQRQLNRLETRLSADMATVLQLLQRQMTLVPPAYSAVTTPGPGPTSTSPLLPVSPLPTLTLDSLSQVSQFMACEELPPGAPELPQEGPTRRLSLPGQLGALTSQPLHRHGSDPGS
Chain of CYP3A4 (P08684 whole entry): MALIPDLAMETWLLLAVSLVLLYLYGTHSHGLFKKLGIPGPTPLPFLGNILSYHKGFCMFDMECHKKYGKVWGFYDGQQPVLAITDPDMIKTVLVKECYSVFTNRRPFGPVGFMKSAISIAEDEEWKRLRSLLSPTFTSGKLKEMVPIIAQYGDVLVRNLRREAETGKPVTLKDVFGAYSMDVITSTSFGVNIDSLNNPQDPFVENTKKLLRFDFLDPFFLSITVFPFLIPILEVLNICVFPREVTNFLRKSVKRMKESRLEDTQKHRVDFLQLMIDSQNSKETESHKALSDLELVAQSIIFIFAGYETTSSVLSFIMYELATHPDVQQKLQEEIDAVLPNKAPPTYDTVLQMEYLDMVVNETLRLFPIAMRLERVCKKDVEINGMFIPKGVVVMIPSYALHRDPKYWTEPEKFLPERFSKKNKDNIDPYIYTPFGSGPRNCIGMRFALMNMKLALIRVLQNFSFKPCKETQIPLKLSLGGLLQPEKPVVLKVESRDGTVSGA
T1 sequence (Q8TDU6 whole entry): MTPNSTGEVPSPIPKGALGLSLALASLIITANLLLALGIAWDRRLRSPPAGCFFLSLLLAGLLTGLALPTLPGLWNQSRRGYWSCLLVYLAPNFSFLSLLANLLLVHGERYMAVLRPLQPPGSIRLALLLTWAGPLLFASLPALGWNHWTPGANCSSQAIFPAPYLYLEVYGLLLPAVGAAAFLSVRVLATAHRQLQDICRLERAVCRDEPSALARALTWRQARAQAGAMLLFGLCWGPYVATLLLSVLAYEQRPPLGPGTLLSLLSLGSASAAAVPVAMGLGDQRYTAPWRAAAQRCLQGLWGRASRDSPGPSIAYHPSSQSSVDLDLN
Chain of mTGR5 (Q80SS6 whole entry): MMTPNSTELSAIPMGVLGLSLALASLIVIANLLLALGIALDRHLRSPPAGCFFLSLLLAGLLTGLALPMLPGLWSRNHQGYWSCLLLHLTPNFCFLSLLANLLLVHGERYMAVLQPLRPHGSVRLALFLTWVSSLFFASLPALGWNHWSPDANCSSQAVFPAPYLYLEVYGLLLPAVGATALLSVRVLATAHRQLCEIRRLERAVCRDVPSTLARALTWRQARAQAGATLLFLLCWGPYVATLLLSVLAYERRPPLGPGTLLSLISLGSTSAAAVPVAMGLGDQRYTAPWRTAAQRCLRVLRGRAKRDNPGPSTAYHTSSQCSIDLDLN
Chain of CYP2C19 (P33261 whole entry): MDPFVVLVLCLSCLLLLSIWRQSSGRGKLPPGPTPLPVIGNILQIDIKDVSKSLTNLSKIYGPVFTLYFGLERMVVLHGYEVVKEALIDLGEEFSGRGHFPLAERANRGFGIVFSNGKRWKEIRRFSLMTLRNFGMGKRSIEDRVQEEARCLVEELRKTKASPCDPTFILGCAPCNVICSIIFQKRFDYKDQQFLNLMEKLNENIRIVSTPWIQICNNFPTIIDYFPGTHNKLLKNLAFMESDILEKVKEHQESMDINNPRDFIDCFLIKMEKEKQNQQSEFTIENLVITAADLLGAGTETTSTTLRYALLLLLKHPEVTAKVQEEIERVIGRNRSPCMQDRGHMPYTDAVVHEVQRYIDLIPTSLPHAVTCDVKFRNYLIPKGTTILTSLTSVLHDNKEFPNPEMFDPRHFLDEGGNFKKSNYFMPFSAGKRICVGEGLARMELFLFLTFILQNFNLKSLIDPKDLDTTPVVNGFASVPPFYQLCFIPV
Chain of CYP2D6 (P10635 whole entry): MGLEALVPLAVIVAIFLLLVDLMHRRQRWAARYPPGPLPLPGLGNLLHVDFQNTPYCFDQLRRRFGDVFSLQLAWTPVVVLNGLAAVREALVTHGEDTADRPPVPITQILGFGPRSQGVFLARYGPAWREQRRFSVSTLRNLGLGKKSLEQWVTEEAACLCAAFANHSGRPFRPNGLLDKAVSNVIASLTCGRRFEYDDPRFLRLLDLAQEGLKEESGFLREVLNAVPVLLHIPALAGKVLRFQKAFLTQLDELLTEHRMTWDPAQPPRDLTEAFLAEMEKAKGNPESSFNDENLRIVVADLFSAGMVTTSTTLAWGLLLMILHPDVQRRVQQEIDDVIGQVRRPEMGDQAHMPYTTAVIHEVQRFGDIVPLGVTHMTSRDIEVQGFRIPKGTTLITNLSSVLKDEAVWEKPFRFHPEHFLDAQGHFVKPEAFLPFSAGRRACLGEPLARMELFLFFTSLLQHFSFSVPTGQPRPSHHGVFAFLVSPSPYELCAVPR
Chain of CYP2C9 (P11712 whole entry, canonical isoform): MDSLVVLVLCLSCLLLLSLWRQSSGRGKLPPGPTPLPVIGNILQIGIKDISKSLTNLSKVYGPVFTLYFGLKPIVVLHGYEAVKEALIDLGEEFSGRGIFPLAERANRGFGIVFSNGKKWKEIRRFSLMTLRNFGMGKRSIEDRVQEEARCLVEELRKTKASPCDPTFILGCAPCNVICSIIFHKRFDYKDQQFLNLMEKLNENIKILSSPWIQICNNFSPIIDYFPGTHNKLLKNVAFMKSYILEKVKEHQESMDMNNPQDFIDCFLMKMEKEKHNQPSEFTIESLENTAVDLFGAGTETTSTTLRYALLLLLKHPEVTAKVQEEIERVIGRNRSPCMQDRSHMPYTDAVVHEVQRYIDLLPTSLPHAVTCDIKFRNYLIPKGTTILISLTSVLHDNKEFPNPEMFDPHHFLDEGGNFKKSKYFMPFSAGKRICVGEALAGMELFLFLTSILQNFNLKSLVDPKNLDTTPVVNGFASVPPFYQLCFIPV
Chain of rTGR5 (Q80T02 whole entry): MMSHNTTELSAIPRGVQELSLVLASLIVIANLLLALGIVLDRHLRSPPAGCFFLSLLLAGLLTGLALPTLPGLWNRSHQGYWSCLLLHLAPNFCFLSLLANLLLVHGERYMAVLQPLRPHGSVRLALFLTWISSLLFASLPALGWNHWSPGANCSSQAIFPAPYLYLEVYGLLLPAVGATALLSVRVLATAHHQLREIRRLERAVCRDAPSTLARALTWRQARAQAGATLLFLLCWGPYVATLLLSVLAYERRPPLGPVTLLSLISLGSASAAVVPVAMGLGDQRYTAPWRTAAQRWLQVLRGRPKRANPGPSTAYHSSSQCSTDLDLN
Chain of CYP1A2 (P05177 whole entry): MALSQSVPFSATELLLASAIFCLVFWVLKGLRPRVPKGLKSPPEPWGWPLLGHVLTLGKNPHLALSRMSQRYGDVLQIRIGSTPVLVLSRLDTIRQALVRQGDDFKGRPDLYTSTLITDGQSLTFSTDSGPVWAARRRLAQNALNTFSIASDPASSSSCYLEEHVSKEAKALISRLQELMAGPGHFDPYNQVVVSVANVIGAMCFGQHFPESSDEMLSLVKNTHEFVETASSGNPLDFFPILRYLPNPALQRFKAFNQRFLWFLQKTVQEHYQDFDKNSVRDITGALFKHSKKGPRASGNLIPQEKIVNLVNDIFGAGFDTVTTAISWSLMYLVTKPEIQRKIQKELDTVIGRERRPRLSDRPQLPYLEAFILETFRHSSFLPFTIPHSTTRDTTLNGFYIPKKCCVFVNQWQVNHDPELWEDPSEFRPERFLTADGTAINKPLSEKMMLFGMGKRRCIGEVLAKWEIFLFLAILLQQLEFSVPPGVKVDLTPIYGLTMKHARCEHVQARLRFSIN

CC[C@H]1[C@@H](O)C2C3CC[C@H]([C@H](C)CCO)[C@@]3(C)C[C@H](O)C2[C@@]2(C)CC[C@@H](O)C[C@@H]12 (stereo partly drawn) [Compound 2, 3α,7α,11β-trihydroxy-6α-ethyl-24-nor-5β-cholan-23-ol]
EC50 (hTGR5 [1]): 93 µM

CC[C@H]1[C@@H](O)C2C3CC[C@H]([C@H](C)CC(=O)O)[C@@]3(C)C[C@H](O)C2[C@@]2(C)CC[C@@H](O)C[C@@H]12 (stereo partly drawn) [Compound 1, 3α,7α,11β-trihydroxy-6α-ethyl-24-nor-5β-cholan-23-oic acid]
EC50 (hTGR5 [1]): > 100 µM

CC[C@H]1[C@@H](O)C2C3CC[C@H]([C@H](C)C[C@H](C)C(=O)O)[C@@]3(C)CCC2[C@@]2(C)CC[C@@H](O)C[C@@H]12 (stereo partly drawn) [Compound D, 6α-ethyl-23(R)-methyl chenodeoxycholic acid]
LogPA−: 1-octanol-water partition coefficient as ionized species [2]: 2.9

CC[C@H]1[C@@H](O)[C@@H]2[C@H](CC[C@]3(C)[C@@H]([C@H](C)CCC(=O)O)CC[C@@H]23)[C@@]2(C)CC[C@@H](O)C[C@@H]12 [Compound A, 6α-ethyl-3α,7α-dihydroxy-5β-cholan-24-oic acid, reference compound]
CMC: Critical Micellar Concentration [3]: 2.9 mM | LogPA−: 1-octanol-water partition coefficient as ionized species [2]: 2.5

CC[C@H]1[C@@H](O)C2C3CCC(C(C)CC(C)C(=O)O)[C@@]3(C)[C@@H](O)CC2[C@@]2(C)CC[C@@H](O)C[C@@H]12 (stereo in doubt) [Compound C, 6α-ethyl-23(S)-methyl-3α,7α,12α trihydroxy-5β-cholan-24-oic acid, reference compound]
CMC: Critical Micellar Concentration [3]: 2 mM | LogPA−: 1-octanol-water partition coefficient as ionized species [2]: 1.4

CC[C@H]1[C@@H](O)C2C3C[C@H](O)[C@H]([C@H](C)CCC(=O)O)[C@@]3(C)CCC2[C@@]2(C)CC[C@@H](O)C[C@@H]12 (stereo partly drawn) [Compound E, reference compound]
CMC: Critical Micellar Concentration [3]: 5.9 mM | LogPA−: 1-octanol-water partition coefficient as ionized species [2]: 1.6

6α-ethyl-3α,7α,23-trihydroxy-24-nor-5β-cholan-23-sulphate sodium salt [Compound B, reference compound]
EC50 (hTGR5 [1]): 0.63 µM

CC[C@H]1[C@@H](O)[C@@H]2[C@H]([C@@H](O)C[C@]3(C)[C@@H]([C@H](C)CCCO)CC[C@@H]23)[C@@]2(C)CC[C@@H](O)C[C@@H]12 [Compound 4, 3α,7α,11β-trihydroxy-6α-ethyl-5β-cholan-24-ol]
EC50 (hTGR5 [1]): 13.7 ± 2.3 µM

CC[C@H]1[C@@H](O)C2C3CC[C@H]([C@H](C)CCCOS(=O)(=O)[O-])[C@@]3(C)C[C@H](O)C2[C@@]2(C)CC[C@@H](O)C[C@@H]12.[Na+] (stereo partly drawn) [Compound 5, 3α,7α,11β-Trihydroxy-6α-ethyl-5β-cholan-24-O-sulphate, sodium salt]
Modulation of FXR target genes BSEP, SHP, OSTβ and CYP7A1 [4]: significantly bind to FXR in hepatic cells modulating FXR target genes | IC50 (CYP2C9): > 10 µM | IC50 (CYP2C19): > 10 µM | IC50 (CYP1A2): > 10 µM | IC50 (CYP3A4): > 10 µM | IC50 (CYP3A4; [7]): > 10 µM | IC50 (CYP2E1): > 10 µM | IC50 (CYP2D6): > 10 µM | Activation of nuclear receptor panel, agonist mode [5]: Neither compound activated any of the receptors | Activity on nuclear receptor panel, antagonist mode [5]: Neither compound activated any of the receptors | EC50 (hTGR5 [1]): 78 ± 1 µM | CMC: Critical Micellar Concentration [3]: 8.5 mM | ATP Content EC50 (HepG2 cells): No toxicity | EC50 (hTGR5 [6]): 3 ± 1 µM | LogPA−: 1-octanol-water partition coefficient as ionized species [2]: 0.61 | rTGR5 CHO EC50 (rTGR5): No activity | dTGR5 CHO EC50 (dTGR5): No activity | EC50 (mTGR5): 4 ± 1 µM | IC50 (hERG potassium channel): > 100 µM | hERG potassium channel inhibition (in words) (hERG potassium channel): Compounds L1, 3, 5, 6 and 7 did not inhibit hERG potassium channel.

CC[C@H]1[C@@H](O)C2C3CC[C@H]([C@H](C)CCOS(=O)(=O)[O-])[C@@]3(C)C[C@H](O)C2[C@@]2(C)CC[C@@H](O)C[C@@H]12.[Na+] (stereo partly drawn) [Compound 3, 3α,7α,11β,23-tetrahydroxy-6α-ethyl-24-nor-5β-cholan-23-O-sulphate sodium salt]
Modulation of FXR target genes BSEP, SHP, OSTβ and CYP7A1 [4]: significantly bind to FXR in hepatic cells modulating FXR target genes | IC50 (CYP2C9): > 10 µM | IC50 (CYP2C19): > 10 µM | IC50 (CYP1A2): > 10 µM | IC50 (CYP3A4): > 10 µM | IC50 (CYP3A4; [7]): > 10 µM | IC50 (CYP2E1): > 10 µM | IC50 (CYP2D6): > 10 µM | Activation of nuclear receptor panel, agonist mode [5]: Neither compound activated any of the receptors | Activity on nuclear receptor panel, antagonist mode [5]: Neither compound activated any of the receptors | EC50 (hTGR5 [1]): 83 ± 7 µM | CMC: Critical Micellar Concentration [3]: 12.5 mM | ATP Content EC50 (HepG2 cells): No toxicity | EC50 (hTGR5 [6]): 5 ± 1 µM | LogPA−: 1-octanol-water partition coefficient as ionized species [2]: 0.12 | rTGR5 CHO EC50 (rTGR5): No activity | dTGR5 CHO EC50 (dTGR5): No activity | EC50 (mTGR5): 3 ± 0.5 µM | IC50 (hERG potassium channel): > 100 µM | hERG potassium channel inhibition (in words) (hERG potassium channel): Compounds L1, 3, 5, 6 and 7 did not inhibit hERG potassium channel.
